Measured values taken from PubChem BioAssay AID1963869 (Molecular Pharmacology Branch, DTP, NCI, 2024).

Tested on: KRAS patient-derived spheroids with HUVEC/MSC, viability
Assay: Anticancer human tumor 323965-272-R-J2-PDC patient-derived pancreatic carcinoma cell line growth inhibition [KRAS2]
Settings: for IC50: curve of first compound; for viability, T/C: stronger effect = lower value; active = viability on the fitted dose curve at most 10% of control; inactive = the rest
How it was run: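 KRAS-mutant tumor cells were grown as spheroids with HUVEC endothelial cells and human MSCs as stroma. Targeted agents were tested alone and with KRAS pathway inhibitors. Doses started at or near clinical Cmax, or 10 microM, descending half-log.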

[1] = second compound 0.1 µM, first compound 0.0316 µM
[2] = second compound 0.1 µM, first compound 0.1 µM
[3] = second compound 0.1 µM, first compound 0.316 µM
[4] = second compound 0.1 µM, first compound 1 µM
[5] = second compound 0.1 µM, first compound 3.16 µM
[6] = second compound 0.1 µM, first compound 10 µM
[7] = second compound 0.316 µM, first compound 0.0316 µM
[8] = second compound 0.316 µM, first compound 0.1 µM
[9] = second compound 0.316 µM, first compound 0.316 µM
[10] = second compound 0.316 µM, first compound 1 µM
[11] = second compound 0.316 µM, first compound 3.16 µM
[12] = second compound 0.316 µM, first compound 10 µM
[13] = second compound 1 µM, first compound 0.0316 µM
[14] = second compound 1 µM, first compound 0.1 µM
[15] = second compound 1 µM, first compound 0.316 µM
[16] = second compound 1 µM, first compound 1 µM
[17] = second compound 1 µM, first compound 3.16 µM
[18] = second compound 1 µM, first compound 10 µM
[19] = second compound 3.16 µM, first compound 0.0316 µM
[20] = second compound 3.16 µM, first compound 0.1 µM
[21] = second compound 3.16 µM, first compound 0.316 µM
[22] = second compound 3.16 µM, first compound 1 µM
[23] = second compound 3.16 µM, first compound 3.16 µM
[24] = second compound 3.16 µM, first compound 10 µM
[25] = second compound 10 µM, first compound 0.0316 µM
[26] = second compound 10 µM, first compound 0.1 µM
[27] = second compound 10 µM, first compound 0.316 µM
[28] = second compound 10 µM, first compound 1 µM
[29] = second compound 10 µM, first compound 3.16 µM
[30] = second compound 10 µM, first compound 10 µM
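Also: spheroids exposed to agents for 7 days.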
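For viability, T/C in this document: 100% = DMSO vehicle control viability.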

CC(C)NCC(C(=O)N1CCN(c2ncnc3c2C(C)CC3O)CC1)c1ccc(Cl)cc1 (stereo not given) + CNCc1ccccc1-c1csc(C(C)Nc2nc(C)nc3cc(OC)c(OC)cc23)c1
active: viability, T/C [25] 0.27% | viability, T/C [26] 0.28% | viability, T/C [27] 0.23% | viability, T/C [28] 0.59% | viability, T/C [29] 0.71% | viability, T/C [30] 0.19%
1330 nM: IC50 (second compound 1 µM)
inactive: viability, T/C [1] 90.9% | viability, T/C [2] 85.4% | viability, T/C [3] 70.6% | viability, T/C [4] 55.8% | viability, T/C [5] 41.7% | viability, T/C [6] 36% | viability, T/C [7] 94.2% | viability, T/C [8] 85.2% | viability, T/C [9] 72.9% | viability, T/C [10] 48.1% | viability, T/C [11] 41.4% | viability, T/C [12] 33% | viability, T/C [13] 94.9% | viability, T/C [14] 91.8% | viability, T/C [15] 79.9% | viability, T/C [16] 54.4% | viability, T/C [17] 36.7% | viability, T/C [18] 32.9% | viability, T/C [19] 88.3% | viability, T/C [20] 73.2% | viability, T/C [21] 58.5% | viability, T/C [22] 43% | viability, T/C [23] 21.5% | viability, T/C [24] 18%
532 nM: IC50 (second compound 3.16 µM)
< 31.6 nM: IC50 (second compound 10 µM)
1570 nM: IC50 (second compound 0.1 µM)
1060 nM: IC50 (second compound 0.316 µM)

CC1(C)CCC(CN2CCN(c3ccc(C(=O)NS(=O)(=O)c4ccc(NCC5CCOCC5)c([N+](=O)[O-])c4)c(Oc4cnc5[nH]ccc5c4)c3)CC2)=C(c2ccc(Cl)cc2)C1 + CNCc1ccccc1-c1csc(C(C)Nc2nc(C)nc3cc(OC)c(OC)cc23)c1
1680 nM: IC50 (second compound 0.316 µM)
1910 nM: IC50 (second compound 1 µM)
active: viability, T/C [6] 5.18% | viability, T/C [12] 2.51% | viability, T/C [18] 1.65% | viability, T/C [23] 1.61% | viability, T/C [24] 1.05% | viability, T/C [25] 0.23% | viability, T/C [26] 0.28% | viability, T/C [27] 0.27% | viability, T/C [28] 0.19% | viability, T/C [29] 0.14% | viability, T/C [30] 0.18%
1820 nM: IC50 (second compound 0.1 µM)
1430 nM: IC50 (second compound 3.16 µM)
inactive: viability, T/C [1] 94.5% | viability, T/C [2] 94.2% | viability, T/C [3] 86.2% | viability, T/C [4] 87.8% | viability, T/C [5] 14.9% | viability, T/C [7] 83% | viability, T/C [8] 91.8% | viability, T/C [9] 92.5% | viability, T/C [10] 81.2% | viability, T/C [11] 12% | viability, T/C [13] 106% | viability, T/C [14] 104% | viability, T/C [15] 99.2% | viability, T/C [16] 94.8% | viability, T/C [17] 15.3% | viability, T/C [19] 104% | viability, T/C [20] 102% | viability, T/C [21] 98.7% | viability, T/C [22] 71.3%
< 31.6 nM: IC50 (second compound 10 µM)

CCN1CCN(Cc2ccc(Nc3ncc(F)c(-c4cc(F)c5nc(C)n(C(C)C)c5c4)n3)nc2)CC1 + CNCc1ccccc1-c1csc(C(C)Nc2nc(C)nc3cc(OC)c(OC)cc23)c1
< 3.16 nM: IC50 (second compound 10 µM)
> 1000 nM: IC50 (second compound 0.1 µM) | IC50 (second compound 0.316 µM) | IC50 (second compound 1 µM)
127 nM: IC50 (second compound 3.16 µM)
inactive: viability, T/C (second compound 0.1 µM, first compound 0.00316 µM) 91.5% | viability, T/C (second compound 0.1 µM, first compound 0.01 µM) 85.2% | viability, T/C [1] 59.8% | viability, T/C [2] 47% | viability, T/C [3] 51.5% | viability, T/C [4] 59.7% | viability, T/C (second compound 0.316 µM, first compound 0.00316 µM) 97.3% | viability, T/C (second compound 0.316 µM, first compound 0.01 µM) 93.3% | viability, T/C [7] 65.7% | viability, T/C [8] 56% | viability, T/C [9] 53% | viability, T/C [10] 56% | viability, T/C (second compound 1 µM, first compound 0.00316 µM) 94.2% | viability, T/C (second compound 1 µM, first compound 0.01 µM) 92.8% | viability, T/C [13] 72.6% | viability, T/C [14] 71.8% | viability, T/C [15] 61.8% | viability, T/C [16] 57.7% | viability, T/C (second compound 3.16 µM, first compound 0.00316 µM) 80% | viability, T/C (second compound 3.16 µM, first compound 0.01 µM) 79.2% | viability, T/C [19] 68.4% | viability, T/C [20] 53.4% | viability, T/C [21] 33%
active: viability, T/C [22] 1.27% | viability, T/C (second compound 10 µM, first compound 0.00316 µM) 0.23% | viability, T/C (second compound 10 µM, first compound 0.01 µM) 0.23% | viability, T/C [25] 0.18% | viability, T/C [26] 0.16% | viability, T/C [27] 0.16% | viability, T/C [28] 0.18%

CCNC(=O)CC1N=C(c2ccc(Cl)cc2)c2cc(OC)ccc2-n2c(C)nnc21 (stereo not given) + CNCc1ccccc1-c1csc(C(C)Nc2nc(C)nc3cc(OC)c(OC)cc23)c1
inactive: viability, T/C [1] 94.1% | viability, T/C [2] 75.7% | viability, T/C [3] 51.9% | viability, T/C [4] 38.5% | viability, T/C [5] 33.7% | viability, T/C [6] 33.5% | viability, T/C [7] 87.2% | viability, T/C [8] 77.7% | viability, T/C [9] 50.3% | viability, T/C [10] 36.4% | viability, T/C [11] 34.5% | viability, T/C [12] 31.6% | viability, T/C [13] 94.8% | viability, T/C [14] 80.2% | viability, T/C [15] 54.8% | viability, T/C [16] 40.1% | viability, T/C [17] 34.2% | viability, T/C [18] 32.4% | viability, T/C [19] 98.9% | viability, T/C [20] 80.7% | viability, T/C [21] 55.4% | viability, T/C [22] 36.3% | viability, T/C [23] 26.2% | viability, T/C [24] 24.1%
436 nM: IC50 (second compound 3.16 µM)
active: viability, T/C [25] 0.5% | viability, T/C [26] 0.19% | viability, T/C [27] 0.17% | viability, T/C [28] 0.15% | viability, T/C [29] 0.21% | viability, T/C [30] 0.3%
466 nM: IC50 (second compound 1 µM)
370 nM: IC50 (second compound 0.1 µM)
< 31.6 nM: IC50 (second compound 10 µM)
332 nM: IC50 (second compound 0.316 µM)
